The source made the active and inactive calls.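 The calls were made as follows: active = compounds giving half or more protection of infected cells from virus-caused growth loss, again on retest; inactive = the rest.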

The results in this text go back to PubChem BioAssay AID179 (DTP/NCI, 2004).

For the assay, the system named is CEM cells HIV-1 protection, formazan growth assay. The assay is described as follows: NCI AIDS Antiviral Assay. As to conditions: for IC50: measured here: growth of uninfected CEM cells. A digest of the protocol:
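Steps: treat uninfected and HIV-1-infected human CEM cells at five drug levels; quantify growth by soluble formazan; retest any compound reaching 50% protection; classify actives from the retest.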

The EC50 is the concentration that produces a half-maximal response. One may read the IC50 as the concentration that inhibits the measured activity by half. For the compound `CN(CCc1ccccn1)/[N+]([O-])=N/O` (tested in a mixture with another compound), the EC50 was greater than 4680 µM and the concentration for half-maximal inhibition (IC50) turned out to be 3470 µM. For `O=C(O)c1cccc(C(=O)c2ccccc2)c1` the same measures were greater than 200 µM and greater than 200 µM. For `Clc1cccc(Cl)c1C1SCc2nc3ccccc3n21` (centres undefined) the same measures were 0.224 µM and 21.9 µM. Consider `C=CCC1(O)CC(n2cc(C)c(=O)[nH]c2=O)OC1CO[Si](C)(C)C(C)(C)C` (centres undefined), for which the EC50 was greater than 200 µM and the IC50 turned out to be 91.2 µM. Consider `COC1(OC)CC2C(=O)CCCC21OC` (centres undefined), for which the EC50 is greater than 603 µM and the IC50 is greater than 603 µM. Turning to `CC(=O)O[C@H]1CN(S(=O)(=O)c2ccc(C)cc2)C[C@@H]1C1CCCCC1`, the EC50 was greater than 200 µM and the 50% inhibitory concentration (IC50) was 28.8 µM. As to `COc1ccc(-c2coc3cc(O)ccc3c2=O)cc1`, the EC50 was greater than 200 µM and the 50% inhibitory concentration (IC50) is greater than 100 µM.

As to `Cc1cn([C@H]2C[C@@H]3[C@@H](COC(CCCC[Se]c4ccccc4)N3O)O2)c(=O)[nH]c1=O` (some centres undefined), the concentration for a half-maximal effect (EC50) was 14.8 µM and the IC50 was found to be 105 µM. On to `CC1C2CCC3C4CC=C5CC(N(C)C)CCC5(C)C4CCC32CN1C` (centres undefined), for which the EC50 is greater than 200 µM and the IC50 worked out at 41.7 µM.

Consider `O=c1[nH]c2ccccc2nc1/C=C(\O)c1ccccc1O`, for which the EC50 is greater than 13.5 µM and the concentration for half-maximal inhibition (IC50) is greater than 13.5 µM. `O=C(NNc1ccccc1)/C(=C/c1ccc2c(c1)OCO2)NC(=O)c1ccccc1`: the EC50 is greater than 12.9 µM and the IC50 is greater than 12.9 µM. For the compound `Cn1ccnc1CCc1c(Cl)cccc1Cl`, the EC50 is greater than 851 µM and the half-maximal inhibitory concentration (IC50) was found to be 123 µM. Turning to `O=S(=O)(c1ccccc1)C1CN2OC1(S(=O)(=O)c1ccccc1)CC2c1ccc(Br)cc1` (centres undefined), the result was inactive. `CC/C(Cl)=N\OC(=O)Nc1ccc(F)c(Cl)c1`: the outcome was inactive. For the compound `CCC1(O)CN(CCOC)[C@H]2C[C@@H]1C(=O)c1[nH]c3ccccc3c12` (some centres undefined), the EC50 is greater than 200 µM and the IC50 was greater than 200 µM. For `O=c1c(-c2ccc3c(c2)OCO3)coc2cc(O)ccc12`, the EC50 was greater than 200 µM and the concentration for half-maximal inhibition (IC50) was greater than 200 µM. With `O=c1scc(-c2ccc([N+](=O)[O-])cc2)s1`, the EC50 is greater than 6.03 µM and the half-inhibitory concentration (IC50) was greater than 6.03 µM.

In the case of `CCCCCCCCCCCc1cc(=O)c2c(O)cccc2o1`, the EC50 was greater than 14.8 µM and the IC50 is greater than 14.8 µM. Consider `[N-]=[N+]=NI1OC(=O)c2ccccc21`, for which the concentration giving a half-maximal response (EC50) was greater than 200 µM and the IC50 was 55 µM.

Turning to `CC1=C(C(=O)CC(=O)C(=O)NC2C3CC4CC(C3)CC2C4)Sc2ccccc2N1` (centres undefined), the EC50 is greater than 9.12 µM and the IC50 is greater than 9.12 µM. For `CC1=C2N3C[C@@H](n4c(=O)n(C)c(=O)n43)C23CCC1n1c(=O)n(C)c(=O)n13`, the EC50 was greater than 72.4 µM and the IC50 was greater than 72.4 µM. On to `Cc1ccccc1-n1c2nc(=O)n(C)c(=O)c-2nc2ccccc21`, for which the outcome was inactive. `COc1ccc(Cc2cnc(N)nc2N)cc1OC`: the result was inactive. For the compound `O=c1[nH]c(=O)c2[nH]c(Cl)nc2[nH]1`, the EC50 was greater than 28.2 µM and the IC50 is greater than 28.2 µM. On to `O=C(O)C(Cc1ccccc1)NCc1c(O)ccc2c(-c3ccccc3)cc(=O)oc12` (centres undefined), for which the EC50 is greater than 200 µM and the concentration for half-maximal inhibition (IC50) is greater than 200 µM. With `CCCN=C1NC(C)=CSC(Nc2ccccc2)=C1C#N`, the EC50 is greater than 200 µM and the half-inhibitory concentration (IC50) is greater than 200 µM.

In the case of `O=C1NC2=C(CCCC/C2=N\O)C12CCCCC2`, the result was inactive. In the case of `CC1CCc2ccccc2O1` (centres undefined), the EC50 was greater than 200 µM and the half-inhibitory concentration (IC50) was greater than 200 µM. Regarding `NC(=S)N/N=C\CC(O)(C(F)(F)F)C(F)(F)F`, the EC50 was greater than 200 µM and the 50% inhibitory concentration (IC50) is greater than 200 µM. As to `N#CC(C#N)=Cc1c(O)ccc2ccccc12`, the EC50 was greater than 200 µM and the IC50 came out at 9.77 µM. The like results for `CNC(=O)OC(C)CN1c2ccccc2Sc2ccccc21` (centres undefined) were, in that order, greater than 200 µM and 41.7 µM.

With `CCOC(=O)Nc1nn(-c2ccc3ccccc3n2)c(=O)[nH]1`, the EC50 is greater than 63.1 µM and the half-inhibitory concentration (IC50) was determined as 10 µM. On to `c1ccc(-c2cc(-c3ccccc3)nc(-c3ccncc3)c2)cc1`, for which the EC50 was greater than 200 µM and the half-maximal inhibitory concentration (IC50) was greater than 200 µM. Turning to `O=C(O)CN1CCN(CC(=O)N2CCN(C(=O)OCc3ccccc3)CC2)CCN(CC(=O)O)CCN(CC(=O)N2CCN(C(=O)OCc3ccccc3)CC2)CC1`, the EC50 was greater than 200 µM and the half-inhibitory concentration (IC50) is greater than 200 µM. With `O=C(O)c1nc2ccc(C(F)(F)F)cc2[nH]c1=O`, the EC50 is greater than 200 µM and the 50% inhibitory concentration (IC50) is greater than 200 µM.

As for `c1ccc2c(c1)cnn1cnnc21`, the EC50 is greater than 1480 µM and the 50% inhibitory concentration (IC50) came out at 661 µM. `CC(=O)N=C(N=Nc1c(O)[nH]c2ccc(C)cc12)NC(C)=O`: the EC50 was greater than 200 µM and the half-maximal inhibitory concentration (IC50) is 148 µM. For the compound `O=C(O)C1CCC(c2ccc(Cl)cc2Cl)=N1` (centres undefined), the EC50 is greater than 200 µM and the IC50 was greater than 200 µM. As to `COC(=O)C1C2C1C1C=CC2n2c(=O)n(-c3ccccc3)c(=O)n21` (centres undefined), the EC50 is greater than 200 µM and the 50% inhibitory concentration (IC50) is greater than 200 µM. For `COc1ccc(-c2c3ccccc3c(-c3ccc(OCCCCCBr)cc3)c3ccccc23)cc1`, the EC50 was greater than 2.75 µM and the 50% inhibitory concentration (IC50) is greater than 2.75 µM. `CCOC(=O)CCC(NC(=O)c1ccc(Nc2nc3ccccc3nc2C(=O)OCC)s1)C(=O)OCC` (centres undefined): the EC50 is greater than 200 µM and the IC50 is greater than 200 µM. As for `CSc1nc(C)cc(Nc2ccc(O)c(CN3CCOCC3)c2)n1`, the EC50 was greater than 24 µM and the 50% inhibitory concentration (IC50) is greater than 24 µM.

Consider `OC(Cc1ccc2ccccc2c1)CN1CCC(c2ccccc2)CC1` (centres undefined), for which the EC50 was greater than 93.3 µM and the IC50 is 37.2 µM. In the case of `O=C1NC(=O)C(=Cc2ccccc2)C(=O)N1`, the EC50 is greater than 166 µM and the 50% inhibitory concentration (IC50) was greater than 166 µM. In the case of `Nc1ccc(/C=C/c2ccnc3ccccc23)c(N)c1`, the EC50 is 0.0631 µM and the 50% inhibitory concentration (IC50) was determined as 79.4 µM.

Turning to `COC(=O)c1cc(C(=O)OC)c2c3[nH]cnc3ncn2c1=O`, the EC50 was greater than 200 µM and the half-inhibitory concentration (IC50) was greater than 200 µM. On to `NC1=CN(CCCO)C2=N/C(=C\c3ccccc3)C(=O)N12`, for which the EC50 was greater than 200 µM and the IC50 is greater than 200 µM. As for `Cc1ccc(C)n1-c1ccccc1C1SCCCS1`, the EC50 is greater than 200 µM and the IC50 was 195 µM. As for `COc1ccc(C(=O)Nc2cc(C(=CCC[C@H]3CC[C@@]4(C)[C@@H](CC[C@@H]5[C@@H]4CC[C@]4(C)[C@@H](C(C)CCCC(C)C)CC[C@@H]54)C3)c3cc(NC(=O)c4ccc(OC)c(C(=O)O)c4)c(OC)c(C(=O)O)c3)cc(C(=O)O)c2OC)cc1C(=O)O` (some centres undefined), the EC50 is 36.3 µM and the 50% inhibitory concentration (IC50) came to 49 µM. For `CCOC(=O)C(/C=N/C(N)=S)=C(/O)c1ccccc1`, the EC50 was greater than 200 µM and the IC50 is greater than 200 µM. As for `N#Cc1c(N2CCN(c3ccc([N+](=O)[O-])cc3)CC2)[n+](=O)c2ccc(Cl)cc2n1[O-]`, the EC50 is greater than 20 µM and the IC50 came to 0.631 µM. Regarding `CS/C(=N\N=C(/C)c1ccccn1)SS/C(=N/N=C(\C)c1ccccn1)SC`, the EC50 is greater than 2 µM and the IC50 came to 0.00741 µM. The like results for `CC(C#N)NCc1ccc(C(C)NC(C)C#N)cc1` (centres undefined) were, in that order, greater than 200 µM and greater than 200 µM. Consider `CCCCCCC(c1cc(Cl)c(OC)c(C(=O)OC)c1)c1cc(Cl)c(OC)c(C(=O)OC)c1`, for which the EC50 is greater than 36.3 µM and the concentration for half-maximal inhibition (IC50) was greater than 36.3 µM. As for `CN(N)c1ncnc2c1cnn2C`, the EC50 was greater than 209 µM and the concentration for half-maximal inhibition (IC50) was greater than 209 µM. `CC1(C)OCN(c2ccc(S(N)(=O)=O)cc2)Cn2c1nc1ccccc12`: the EC50 is greater than 200 µM and the IC50 worked out at 117 µM.

As to `COc1ccc(-c2c(C(=O)Nc3ccccc3)c(-c3ccccc3)n(C3OC(CO)C(O)C(O)C3O)c(=S)c2C#N)cc1` (centres undefined), the EC50 was greater than 200 µM and the IC50 stood at 107 µM.

Turning to `CC(C)=CCC[C@@H](C)C1=CC(=O)C(C)=C(O)C1=O`, the EC50 was greater than 2 µM and the IC50 worked out at 1.02 µM. The like results for `O=C(OC[C@H]1C[C@H]2C(=O)OCCC[C@H]2O1)c1ccccc1` were, in that order, greater than 200 µM and greater than 200 µM. As for `N#C/C(=C\NC(N)=S)c1nc2ccccc2s1`, the result was inactive.

With `Cn1c(=O)[nH]c2c(c1=O)Cc1ccccc1S2(=O)=O`, the EC50 was greater than 389 µM and the IC50 was 148 µM. The like results for `COc1ccc(/C(Cl)=C(\CNc2ccccn2)c2ccccc2)cc1OC` were, in that order, greater than 200 µM and greater than 200 µM. `O=C(C=C1SCCS1)/C=C\c1ccc(Cl)cc1`: the EC50 is greater than 35.5 µM and the IC50 was greater than 35.5 µM. With `O=C(O)[C@H](NS(=O)(=O)c1ccc2ccccc2c1)c1ccccc1`, the result was inactive. Still for that read-out and setting: the value for `COC(=O)C(=O)C(C(=O)C(=O)Nc1cc(C)ccc1C)c1nc2ccc(C(=O)c3ccccc3)cc2[nH]c1=O` (centres undefined) was “inactive”; that for `Brc1ccc(C[N+]23CN4CN(CN(C4)C2)C3)cc1` was “inactive”. As for `O=P(O)(Cc1ccccc1)OCC1(O)OCC(O)C(O)C1O` (centres undefined), the EC50 is greater than 200 µM and the 50% inhibitory concentration (IC50) was greater than 200 µM.

In the case of `O=C1C[C@@H](Sc2ccccc2)C2(OCCO2)C2ON3CCCC[C@H]3[C@H]12` (some centres undefined), the EC50 was greater than 200 µM and the IC50 amounted to 1.82 µM. The like results for `CCOC(=O)/C(C#N)=C/c1ccnc2ccccc12` were, in that order, greater than 200 µM and 3.8 µM. For `O=c1[nH]c(=S)[nH]c2[nH]c(=S)[nH]c12`, the EC50 is greater than 200 µM and the IC50 was greater than 200 µM. `O=c1[nH]nc(-c2ccccc2)n1/N=C/c1ccccc1O`: the EC50 was greater than 200 µM and the IC50 stood at 115 µM. Turning to `C/C(Cl)=N/OC(=O)Nc1ccc(S(N)(=O)=O)c(C)c1`, the EC50 was greater than 20 µM and the concentration for half-maximal inhibition (IC50) came to 8.71 µM. The like results for `C/C=C(\C)C(=O)OCC12C(OC(C)=O)CC(C)C(C)(CCC3=CC(=O)OC3)[C@H]1CCCC21CO1` (some centres undefined) were, in that order, greater than 75.9 µM and greater than 75.9 µM. The like results for `COc1cccc(/S(C)=N/S(=O)(=O)c2ccc(C)cc2)c1` (centres undefined) were, in that order, greater than 776 µM and 214 µM.
